Results published in patent US20060251617A1, “Methods for treating lymphomas” (Chiron Corporation, priority 2005, published 2006).

How the values were obtained:
[1] = system: human B-cell lymphoma (Daudi) xenograft; test: Daudi xenograft model: IL-2 with CHOP and individual CHOP constituents (Example 2); format: in vivo, BALB/c nude mice; conditions: for Median Tumor Growth delay / Response rate (CR/PR): CR / Response rate (CR/PR): PR: Table 9, n = 10-20 mice/group; for CR/PR on day 28: CR: number of mice with complete response; for CR/PR on day 28: PR: number of mice with partial response; for Group Mean Days of Delay to 1000 mm^3: vs. control group
Protocol: (§1) Passaged, clonally derived Daudi cells (5×10^6 cells/mouse) were reconstituted with 50% Matrigel (BD Biosciences) in a total volume of 0.1 ml and implanted subcutaneously into the right flank of irradiated (3Gy) BALB/c nude mice. Treatments were initiated when the mean tumor volume was 150-300 mm^3. Mice were randomly assigned typically into 10 mice per group. […] Tumor volume is measured using calipers. Caliper measurements of tumors were converted into tumor volume (mm^3) using the formula: ½ (length (mm)×[width (mm)]^2). Tumor growth inhibition (TGI) was calculated as [1−(mean tumor volume of treated group/mean tumor volume of control group)×100]. […] Tumor growth delay (TGD) analysis was calculated as: [(number of days for a treated group to reach a mean tumor volume of 1000 mm^3)−(number of days for the control group to reach a mean tumor volume of 1000 mm^3)]. Percent conditional survival is the percent of mice in each group in which the tumor volume has not reached 1000 mm^3.
Athymic nude BALB/c mice (10 mice/group) were acclimated and irradiated mice were implanted with Daudi cells as described above. Treatment started when tumors were approximately 140 mm^3. This was designated study day 1.
Treatment groups were as follows:
Doxorubicin (H, adriamycin), 3.3 mg/kg, i.v, day 1;
Vincristine (O), 0.5 mg/kg, i.v, day 1;
Prednisone (P), 0.2 mg/kg p.o, days 1-5;
Proleukin® (IL-2), 1 mg/kg; s.c., thrice weekly for 4 weeks, total 12 doses;
Proleukin® (IL-2)+individual chemotherapeutics (as dosed individually, started on day 1);
Proleukin® (IL-2)+CHOP (similar dosing regimens to single agents, started on day 1).

[2] = system: Daudi lymphoma tumor model; test: Pooled Daudi xenograft studies and assessment of synergistic activity (Example 5); format: in vivo, BALB/c nude mice; conditions: pooled studies; for Tumor response CR / Tumor response PR: number of mice, (n) in cell; for Tumor response RR: response rate; for TGI: vs. vehicle
Protocol: as §1
(§2) Multiple comparisons were performed using one-way analysis of variance (ANOVA); post-test to compare different treatment means was done using Student-Newman Keuls test (SigmaStat). Tumor growth delay for each animal (time to 1000 mm^3) was used as the endpoint for conditional survival, and significance between treatments was analysed using a log rank test (Prism). Mice that had no visible tumors at necropsy upon termination of the study were considered censored in this analysis. Differences were considered statistically significant at p<0.05.
Several studies of these agents and combinations of these agents were performed in the Daudi lymphoma tumor model. The data from these multiple experiments were then pooled together for further analysis (Table 10). In vivo drug synergy was evaluated from the response index of combination treatments using multiple drug effect analyses.

[3] = system: human B-cell lymphoma (Daudi) xenograft; test: Daudi xenograft model of human B-cell lymphoma: IL-2/CHOP/rituximab regimens (Example 1); format: in vivo, BALB/c nude mice
Protocol: as §1, §2
See, e.g., Hudson et al., Leukemia (1998) 12:2029-2033 for a description of the Daudi xenograft model. The Daudi/BALB/c nude model expresses high levels of CD20 and is associated with a less aggressive/low grade disease profile. Furthermore, NK cells cannot lyse Daudi tumor cells in the absence of activation by cytokines such as IL-2. See, e.g., Damle et al., J. Immunol. (1987) 138:1779-1785.
120 athymic nude BALB/c mice were acclimated for 1 week to the inoculation of Daudi human B-cell lines. Daudi cells (5×10^6 cells/mouse) were implanted s.c. (right flank) into irradiated young nude mice (3Gy for approximately 3.2 minutes) with 50% matrigel at a volume of 0.1 ml and grown as subcutaneous tumors until tumor volume reached 110 mm^3. This was designated study day 1.
Clinical observations were noted.

[4] = Body weight, clinical observations and tolerability in Daudi tumor-bearing mice; conditions: Example 5
Protocol: (§3) Proleukin® treatment (1 mg/kg; s.c., thrice weekly) commenced either concomitantly (on day 8) or one week later (day 15) for a total of 4 weeks. […] Tumor volumes and body weights were measured two times per week. Clinical observations were noted.

[5] = mouse, in vivo
Protocol: as §3

Compound	Median Tumor Growth delay [1] [days]	Response rate (CR/PR): CR [1]	Response rate (CR/PR): PR [1]	CR/PR on day 28: CR [1]	CR/PR on day 28: PR [1]	Group Mean Days of Delay to 1000 mm^3 [1] [days]	Growth delay [2] [days]	Tumor response CR [2]	Tumor response PR [2]	Tumor response RR [2]	TGI [2]	other results
O=P1(N(CCCl)CCCl)NCCCO1 (stereo not drawn) [Cyclophosphamide, cyclophosphamide]	1	0/0	0/0	0/0	0/0	1	1	0%; 0/0 (10)	0%; 0/0 (10)	0%; 0/0 (10)	2%, p > 0.05	
COc1cccc2c1C(=O)c1c(O)c3c(c(O)c1C2=O)C[C@@](O)(C(=O)CO)C[C@@H]3O[C@H]1C[C@H](N)[C@H](O)[C@H](C)O1 [Doxorubicin]	2	0/0	0/0	0/0	0/0	2	2	0%; 0/0 (10)	0%; 0/0 (10)	0%; 0/0 (10)	9%, p > 0.05	
C[C@]12C=CC(=O)C=C1CC[C@@H]1[C@@H]2C(=O)C[C@@]2(C)[C@H]1CC[C@]2(O)C(=O)CO [Prednisone]	2	1	0	1	0	2	2	1	0	10%	10%, p > 0.05	
CC[C@]1(O)C[C@H]2CN(CCc3c([nH]c4ccccc34)[C@@](C(=O)OC)(c3cc4c(cc3OC)N(C=O)[C@H]3[C@@](O)(C(=O)OC)[C@H](OC(C)=O)[C@]5(CC)C=CCN6CC[C@]43[C@@H]65)C2)C1 [Vincristine]	12	0/0	0/0	0/0	0/0	12	12	0%; 0/0 (10)	0%; 0/0 (10)	0%; 0/0 (10)		
des-alanyl-1, serine-125 human interleukin-2 [IL-2]	2	0/0	0/0	0/0	0/0	2	2	2	1	5%		CR/PR day 29: CR ([3]; mouse, in vivo): 0/0; CR/PR day 29: PR ([3]; mouse, in vivo): 0/0; CR/PR day 164: CR ([3]; mouse, in vivo): 1/0; CR/PR day 164: PR ([3]; mouse, in vivo): 1/0; tumor growth / efficacy in words ([3]; mouse, in vivo): significantly inhibited tumor growth; median conditional survival (days to 1000 mm3) ([3]; time for tumor to reach 1000 mm3): 25 days; TGI day 29 ([3]; tumor growth inhibition vs. vehicle, day 29, n = 10): 33.52%; tolerability [4]: well-tolerated; % max BW. change (day, range) [5]: 12(+8 to +14) day 39%; Clinical Observation [5]: BAR
